This passage reports IC50 results from patent publication US9340590B2 (priority 2011, dated 2016).

Positions of bridges follow the written chain, without caps; N, C: chain ends. Residues, ends and D or L forms follow the SMILES beside them.

In the first experiment the target is hNav1.3 (Homo sapiens, UniProt Q9NY46). Briefly: cell-based. As to conditions: IonWorks Quattro, use-dependent block, hNav1.3; read-out: IWQ Use Nav1.3. On the technique in general: The patch-clamp technique gives a direct electrical read-out from membranes.
Chain of hNav1.3 (Q9NY46 whole entry, looked up): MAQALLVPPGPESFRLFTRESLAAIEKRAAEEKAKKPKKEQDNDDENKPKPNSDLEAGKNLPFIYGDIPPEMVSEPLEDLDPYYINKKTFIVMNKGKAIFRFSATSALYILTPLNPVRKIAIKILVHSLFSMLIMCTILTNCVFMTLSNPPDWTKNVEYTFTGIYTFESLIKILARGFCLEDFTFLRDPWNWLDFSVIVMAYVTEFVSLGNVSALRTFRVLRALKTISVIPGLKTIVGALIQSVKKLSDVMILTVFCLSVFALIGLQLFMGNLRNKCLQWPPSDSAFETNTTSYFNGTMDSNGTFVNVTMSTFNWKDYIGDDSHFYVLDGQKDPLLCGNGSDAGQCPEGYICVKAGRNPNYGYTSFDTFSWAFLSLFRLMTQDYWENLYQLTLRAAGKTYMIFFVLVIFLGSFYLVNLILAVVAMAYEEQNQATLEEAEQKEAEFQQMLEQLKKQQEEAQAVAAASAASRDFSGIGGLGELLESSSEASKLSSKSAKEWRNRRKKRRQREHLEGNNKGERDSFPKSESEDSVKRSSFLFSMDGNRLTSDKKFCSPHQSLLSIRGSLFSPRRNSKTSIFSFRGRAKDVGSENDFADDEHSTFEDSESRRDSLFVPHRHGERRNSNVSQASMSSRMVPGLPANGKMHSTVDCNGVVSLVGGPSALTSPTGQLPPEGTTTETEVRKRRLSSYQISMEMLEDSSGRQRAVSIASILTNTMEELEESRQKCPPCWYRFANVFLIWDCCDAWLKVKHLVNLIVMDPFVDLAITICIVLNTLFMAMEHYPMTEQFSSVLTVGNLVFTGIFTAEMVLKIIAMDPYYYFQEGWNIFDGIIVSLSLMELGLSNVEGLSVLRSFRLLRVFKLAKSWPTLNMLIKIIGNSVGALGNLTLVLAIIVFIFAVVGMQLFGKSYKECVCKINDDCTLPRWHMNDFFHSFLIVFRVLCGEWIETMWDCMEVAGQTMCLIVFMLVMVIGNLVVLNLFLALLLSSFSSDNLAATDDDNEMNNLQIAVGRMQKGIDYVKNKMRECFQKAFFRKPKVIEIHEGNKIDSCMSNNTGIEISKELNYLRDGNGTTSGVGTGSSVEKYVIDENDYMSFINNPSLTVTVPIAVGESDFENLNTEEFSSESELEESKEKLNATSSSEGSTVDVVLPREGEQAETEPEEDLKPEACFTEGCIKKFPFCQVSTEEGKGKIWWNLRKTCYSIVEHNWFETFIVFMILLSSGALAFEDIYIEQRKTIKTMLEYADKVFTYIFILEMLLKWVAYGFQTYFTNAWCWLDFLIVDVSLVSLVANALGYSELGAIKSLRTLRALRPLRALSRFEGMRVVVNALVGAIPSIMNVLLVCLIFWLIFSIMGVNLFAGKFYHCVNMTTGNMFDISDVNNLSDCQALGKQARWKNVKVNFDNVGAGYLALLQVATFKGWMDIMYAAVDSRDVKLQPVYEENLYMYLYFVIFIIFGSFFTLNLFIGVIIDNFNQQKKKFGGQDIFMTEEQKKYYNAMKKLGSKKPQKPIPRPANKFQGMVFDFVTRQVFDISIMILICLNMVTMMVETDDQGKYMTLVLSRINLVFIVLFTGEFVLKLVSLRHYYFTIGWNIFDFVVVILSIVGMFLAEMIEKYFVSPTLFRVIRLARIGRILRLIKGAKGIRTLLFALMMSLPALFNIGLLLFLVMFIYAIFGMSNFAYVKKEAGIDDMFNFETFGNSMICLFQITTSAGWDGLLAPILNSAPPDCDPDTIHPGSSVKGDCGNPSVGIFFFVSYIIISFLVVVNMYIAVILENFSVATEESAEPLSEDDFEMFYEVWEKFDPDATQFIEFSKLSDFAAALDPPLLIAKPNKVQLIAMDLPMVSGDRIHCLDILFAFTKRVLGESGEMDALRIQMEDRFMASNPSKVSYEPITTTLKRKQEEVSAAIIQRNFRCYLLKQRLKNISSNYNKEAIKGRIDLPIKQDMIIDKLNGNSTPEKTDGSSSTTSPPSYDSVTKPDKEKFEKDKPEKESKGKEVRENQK
Regarding `CC[C@H](C)[C@@H]1NC(=O)[C@@H]2CSSC[C@@H]3NC(=O)[C@H](C(C)C)NC(=O)[C@H](CC(C)C)NC(=O)[C@H](CC(N)=O)NC(=O)[C@@H]4CCCN4C(=O)[C@H](CCCNC(=N)N)NC(=O)[C@H](CSSC[C@H](NC(=O)[C@@H](N)CC(=O)O)C(=O)N[C@@H](CC(C)C)C(=O)NCC(=O)N[C@@H](C)C(=O)N[C@@H](Cc4ccccc4)C(=O)N[C@@H](CCCNC(=N)N)C(=O)N[C@@H](CCCCN)C(=O)N2)NC(=O)[C@H](CSSC[C@@H](C(=O)N[C@@H](CCCCN)C(=O)N[C@@H](Cc2ccc(O)cc2)C(=O)N[C@H](C(=O)N[C@@H](Cc2ccccc2)C(N)=O)C(C)C)NC(=O)[C@H](Cc2c[nH]c4ccccc24)NC(=O)[C@H](CCCNC(=N)N)NC(=O)[C@H](Cc2cnc[nH]2)NC(=O)[C@H]([C@@H](C)O)NC(=O)[C@H](CCCNC(=N)N)NC(=O)[C@H](CO)NC3=O)NC(=O)[C@H](CCCCN)NC(=O)[C@H](CC(=O)O)NC(=O)[C@H](CC(N)=O)NC(=O)[C@H](CC(=O)O)NC(=O)[C@@H]2CCCN2C1=O` [compound 809] (H-DCLGAFRKCIPDNDKCCRPNLVCSRTHRWCKYVF-NH2; disulfide 2-17, 9-23, 16-30), the IC50 came out at 300 nM.

`CC[C@H](C)[C@@H]1NC(=O)[C@@H]2CSSC[C@@H]3NC(=O)[C@H](C(C)C)NC(=O)[C@H](CC(C)C)NC(=O)[C@H](CC(N)=O)NC(=O)[C@@H]4CCCN4C(=O)[C@H](CCCNC(=N)N)NC(=O)[C@H](CSSC[C@H](NC(=O)[C@@H](N)CC(=O)O)C(=O)N[C@@H](CC(C)C)C(=O)NCC(=O)N[C@@H](C)C(=O)N[C@@H](CC(C)C)C(=O)N[C@@H](CCCNC(=N)N)C(=O)N[C@@H](CCCCN)C(=O)N2)NC(=O)[C@H](CSSC[C@@H](C(=O)N[C@@H](CCCCN)C(=O)N[C@@H](Cc2ccc(O)cc2)C(=O)N[C@H](C(=O)N[C@@H](Cc2ccccc2)C(N)=O)C(C)C)NC(=O)[C@H](Cc2c[nH]c4ccccc24)NC(=O)[C@H](CCCNC(=N)N)NC(=O)[C@H](Cc2cnc[nH]2)NC(=O)[C@H]([C@@H](C)O)NC(=O)[C@H](CCCNC(=N)N)NC(=O)[C@H](CO)NC3=O)NC(=O)[C@H](CCCCN)NC(=O)[C@H](CC(=O)O)NC(=O)[C@H](CC(N)=O)NC(=O)[C@H](CC(=O)O)NC(=O)[C@@H]2CCCN2C1=O` [compound 810] (H-DCLGALRKCIPDNDKCCRPNLVCSRTHRWCKYVF-NH2; disulfide 2-17, 9-23, 16-30): the IC50 is 200 nM.

A further experiment deals with hNav1.7 (Homo sapiens, UniProt Q15858). The experiment can be described thus: cell-based. The format is cell-based. To be noted: IonWorks Quattro; clamped to −110 mV, depolarized to −10 mV, 5 min after compound; n=2; read-out: IWQ Use Nav1.7.
Chain of hNav1.7 (Q15858 whole entry, looked up): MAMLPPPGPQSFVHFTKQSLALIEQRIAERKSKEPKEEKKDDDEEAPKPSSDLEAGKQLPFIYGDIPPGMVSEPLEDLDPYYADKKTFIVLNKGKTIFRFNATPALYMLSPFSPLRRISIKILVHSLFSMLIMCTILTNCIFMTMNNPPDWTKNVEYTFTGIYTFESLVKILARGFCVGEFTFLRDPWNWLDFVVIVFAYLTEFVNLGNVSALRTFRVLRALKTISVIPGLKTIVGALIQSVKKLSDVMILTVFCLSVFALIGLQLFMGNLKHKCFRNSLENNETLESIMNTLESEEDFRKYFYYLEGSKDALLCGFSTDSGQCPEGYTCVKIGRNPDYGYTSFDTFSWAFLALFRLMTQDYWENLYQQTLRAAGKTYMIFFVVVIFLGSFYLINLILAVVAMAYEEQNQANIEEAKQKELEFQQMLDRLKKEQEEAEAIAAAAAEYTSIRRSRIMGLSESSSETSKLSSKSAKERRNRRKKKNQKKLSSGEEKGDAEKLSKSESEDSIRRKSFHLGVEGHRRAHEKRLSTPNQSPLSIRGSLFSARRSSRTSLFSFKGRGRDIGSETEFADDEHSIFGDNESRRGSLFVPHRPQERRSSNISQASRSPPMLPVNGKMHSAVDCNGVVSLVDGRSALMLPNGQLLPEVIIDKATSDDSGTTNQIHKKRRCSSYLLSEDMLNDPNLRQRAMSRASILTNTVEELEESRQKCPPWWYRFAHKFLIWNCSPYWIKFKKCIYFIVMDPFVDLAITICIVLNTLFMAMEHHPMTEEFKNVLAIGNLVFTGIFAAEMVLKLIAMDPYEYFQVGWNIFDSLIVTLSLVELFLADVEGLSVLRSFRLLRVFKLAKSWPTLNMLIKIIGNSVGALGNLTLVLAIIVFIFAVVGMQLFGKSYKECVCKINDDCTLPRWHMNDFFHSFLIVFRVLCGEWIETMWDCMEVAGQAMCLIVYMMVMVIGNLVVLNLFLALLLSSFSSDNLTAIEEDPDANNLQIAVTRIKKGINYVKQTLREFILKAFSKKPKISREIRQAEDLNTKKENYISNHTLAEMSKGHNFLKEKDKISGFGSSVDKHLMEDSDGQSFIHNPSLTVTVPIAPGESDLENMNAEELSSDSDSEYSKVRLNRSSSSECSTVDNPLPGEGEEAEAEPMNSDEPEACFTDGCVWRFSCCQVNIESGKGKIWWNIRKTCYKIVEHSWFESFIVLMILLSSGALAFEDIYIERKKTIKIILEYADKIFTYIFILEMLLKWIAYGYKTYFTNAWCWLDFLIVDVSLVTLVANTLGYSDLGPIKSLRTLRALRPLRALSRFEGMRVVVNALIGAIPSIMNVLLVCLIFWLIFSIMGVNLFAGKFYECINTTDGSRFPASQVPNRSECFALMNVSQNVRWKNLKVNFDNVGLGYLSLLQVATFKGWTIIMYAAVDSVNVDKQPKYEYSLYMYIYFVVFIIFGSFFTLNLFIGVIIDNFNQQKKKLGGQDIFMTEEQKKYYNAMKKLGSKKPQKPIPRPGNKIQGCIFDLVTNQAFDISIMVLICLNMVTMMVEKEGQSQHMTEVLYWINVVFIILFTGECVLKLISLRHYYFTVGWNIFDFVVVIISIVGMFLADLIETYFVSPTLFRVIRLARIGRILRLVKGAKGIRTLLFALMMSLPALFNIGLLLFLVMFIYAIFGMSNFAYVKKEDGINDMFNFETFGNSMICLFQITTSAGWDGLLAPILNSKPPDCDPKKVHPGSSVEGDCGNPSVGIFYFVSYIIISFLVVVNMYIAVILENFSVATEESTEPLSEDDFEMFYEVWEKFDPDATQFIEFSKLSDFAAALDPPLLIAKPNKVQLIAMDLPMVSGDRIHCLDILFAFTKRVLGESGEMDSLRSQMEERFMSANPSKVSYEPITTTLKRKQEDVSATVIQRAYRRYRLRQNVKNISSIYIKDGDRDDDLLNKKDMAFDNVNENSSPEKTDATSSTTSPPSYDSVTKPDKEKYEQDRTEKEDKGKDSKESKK
Consider `CC[C@H](C)[C@@H]1NC(=O)[C@@H]2CSSC[C@@H]3NC(=O)[C@H](C(C)C)NC(=O)[C@H](CC(C)C)NC(=O)[C@H](CC(N)=O)NC(=O)[C@@H]4CCCN4C(=O)[C@H](CCCNC(=N)N)NC(=O)[C@H](CSSC[C@H](NC(=O)[C@@H](N)CCC(=O)O)C(=O)N[C@@H](CC(C)C)C(=O)NCC(=O)N[C@@H](Cc4ccccc4)C(=O)N[C@@H](CCSC)C(=O)N[C@@H](CCCNC(=N)N)C(=O)N[C@@H](CCCCN)C(=O)N2)NC(=O)[C@H](CSSC[C@@H](C(=O)N[C@@H](CCCCN)C(=O)N[C@@H](Cc2ccc(O)cc2)C(=O)N[C@H](C(=O)N[C@@H](Cc2ccccc2)C(N)=O)C(C)C)NC(=O)[C@H](Cc2c[nH]c4ccccc24)NC(=O)[C@H](CCCCN)NC(=O)[C@H](Cc2c[nH]cn2)NC(=O)[C@H]([C@@H](C)O)NC(=O)[C@H](CCCNC(=N)N)NC(=O)[C@H](CO)NC3=O)NC(=O)[C@H](CCCCN)NC(=O)[C@H](CC(=O)O)NC(=O)[C@H](CC(N)=O)NC(=O)[C@H](CC(=O)O)NC(=O)[C@@H]2CCCN2C1=O` [SEQ ID NO: 18] (H-ECLGFMRKCIPDNDKCCRPNLVCSRTHKWCKYVF-NH2; disulfide 2-17, 9-23, 16-30), for which the IC50 is 220 nM.

`CC[C@H](C)[C@@H]1NC(=O)[C@@H]2CSSC[C@@H]3NC(=O)[C@H](C(C)C)NC(=O)[C@H](CC(C)C)NC(=O)[C@H](CC(N)=O)NC(=O)[C@@H]4CCCN4C(=O)[C@H](CCCNC(=N)N)NC(=O)[C@H](CSSC[C@H](NC(=O)[C@@H](N)CC(=O)O)C(=O)N[C@@H](CCC(=O)O)C(=O)NCC(=O)N[C@@H](Cc4ccccc4)C(=O)N[C@@H](CCSC)C(=O)N[C@@H](CCCNC(=N)N)C(=O)N[C@@H](CCCCN)C(=O)N2)NC(=O)[C@H](CSSC[C@@H](C(=O)N[C@@H](CCCCN)C(=O)N[C@@H](Cc2ccc(O)cc2)C(=O)N[C@H](C(=O)N[C@@H](Cc2ccccc2)C(N)=O)C(C)C)NC(=O)[C@H](Cc2c[nH]c4ccccc24)NC(=O)[C@H](CCCCN)NC(=O)[C@H](Cc2c[nH]cn2)NC(=O)[C@H]([C@@H](C)O)NC(=O)[C@H](CCCNC(=N)N)NC(=O)[C@H](CO)NC3=O)NC(=O)[C@H](CCCCN)NC(=O)[C@H](CC(=O)O)NC(=O)[C@H](CC(N)=O)NC(=O)[C@H](CC(=O)O)NC(=O)[C@@H]2CCCN2C1=O` [SEQ ID NO: 19] (H-DCEGFMRKCIPDNDKCCRPNLVCSRTHKWCKYVF-NH2; disulfide 2-17, 9-23, 16-30): the IC50 came out at 670 nM.

With `CC[C@H](C)[C@@H]1NC(=O)[C@@H]2CSSC[C@@H]3NC(=O)[C@H](C(C)C)NC(=O)[C@H](CC(C)C)NC(=O)[C@H](CC(N)=O)NC(=O)[C@@H]4CCCN4C(=O)[C@H](CCCNC(=N)N)NC(=O)[C@H](CSSC[C@H](NC(=O)[C@H](C)N)C(=O)N[C@@H](CC(C)C)C(=O)NCC(=O)N[C@@H](Cc4ccccc4)C(=O)N[C@@H](CCSC)C(=O)N[C@@H](CCCNC(=N)N)C(=O)N[C@@H](CCCCN)C(=O)N2)NC(=O)[C@H](CSSC[C@@H](C(=O)N[C@@H](CCCCN)C(=O)N[C@@H](Cc2ccc(O)cc2)C(=O)N[C@H](C(=O)N[C@@H](Cc2ccccc2)C(N)=O)C(C)C)NC(=O)[C@H](Cc2c[nH]c4ccccc24)NC(=O)[C@H](CCCCN)NC(=O)[C@H](Cc2c[nH]cn2)NC(=O)[C@H]([C@@H](C)O)NC(=O)[C@H](CCCNC(=N)N)NC(=O)[C@H](CO)NC3=O)NC(=O)[C@H](CCCCN)NC(=O)[C@H](CC(=O)O)NC(=O)[C@H](CC(N)=O)NC(=O)[C@H](CC(=O)O)NC(=O)[C@@H]2CCCN2C1=O` [SEQ ID NO: 20] (H-ACLGFMRKCIPDNDKCCRPNLVCSRTHKWCKYVF-NH2; disulfide 2-17, 9-23, 16-30), the IC50 was 100 nM.

As for `CC[C@H](C)[C@@H]1NC(=O)[C@@H]2CSSC[C@@H]3NC(=O)[C@H](C(C)C)NC(=O)[C@H](CC(C)C)NC(=O)[C@H](CC(N)=O)NC(=O)[C@@H]4CCCN4C(=O)[C@H](CCCNC(=N)N)NC(=O)[C@H](CSSC[C@H](NC(=O)[C@@H](N)CC(=O)O)C(=O)N[C@@H](CC(C)C)C(=O)N[C@@H](CCC(=O)O)C(=O)N[C@@H](Cc4ccccc4)C(=O)N[C@@H](CCSC)C(=O)N[C@@H](CCCNC(=N)N)C(=O)N[C@@H](CCCCN)C(=O)N2)NC(=O)[C@H](CSSC[C@@H](C(=O)N[C@@H](CCCCN)C(=O)N[C@@H](Cc2ccc(O)cc2)C(=O)N[C@H](C(=O)N[C@@H](Cc2ccccc2)C(N)=O)C(C)C)NC(=O)[C@H](Cc2c[nH]c4ccccc24)NC(=O)[C@H](CCCCN)NC(=O)[C@H](Cc2c[nH]cn2)NC(=O)[C@H]([C@@H](C)O)NC(=O)[C@H](CCCNC(=N)N)NC(=O)[C@H](CO)NC3=O)NC(=O)[C@H](CCCCN)NC(=O)[C@H](CC(=O)O)NC(=O)[C@H](CC(N)=O)NC(=O)[C@H](CC(=O)O)NC(=O)[C@@H]2CCCN2C1=O` [SEQ ID NO: 24] (H-DCLEFMRKCIPDNDKCCRPNLVCSRTHKWCKYVF-NH2; disulfide 2-17, 9-23, 16-30), the IC50 came out at 1740 nM.
